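Where inhibition never reached the appropriate level, the endpoint shown equals the highest concentration tested. Otherwise, values were interpolated linearly from a five-concentration, 48-hour dose response in 96-well plates. GI50 is the concentration that inhibits growth by half.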 Calls of active or inactive are those of the source. Cut-off read from the data, not from the text of the source: active = GI50 up to about 1.1 µM and inactive = higher.
How the values were obtained:
Test in all cases: growth of human tumour cells (NCI), 48 h
OVCAR-8 = test system: OVCAR-8
KM12 = test system: KM12
M14 = test system: M14
SF-295 = test system: SF-295
SF-539 = test system: SF-539
A549 = test system: A549
HCT-116 = test system: HCT-116
OVCAR-3 = test system: OVCAR-3
HOP-62 = test system: HOP-62
UACC-257 = test system: UACC-257
EKVX = test system: EKVX
K562 = test system: K562
MCF7 = test system: MCF7
PC-3 = test system: PC-3
CCRF-CEM = test system: CCRF-CEM
SF-268 = test system: SF-268
LOX IMVI = test system: LOX IMVI
SK-MEL-2 = test system: SK-MEL-2
A498 = test system: A498
SR = test system: SR

SMILES | GI50 (OVCAR-8) | GI50 (KM12) | GI50 (M14) | GI50 (SF-295) | GI50 (SF-539) | GI50 (A549) | GI50 (HCT-116) | GI50 (OVCAR-3) | GI50 (HOP-62) | GI50 (UACC-257) | GI50 (EKVX) | GI50 (K562) | GI50 (MCF7) | GI50 (PC-3) | GI50 (CCRF-CEM) | GI50 (SF-268) | GI50 (LOX IMVI) | GI50 (SK-MEL-2) | GI50 (A498) | GI50 (SR)
CCOC(=O)N1CCN(Cc2cc(=O)n3ccc(C)cc3n2)CC1 | > 100 µM (inactive) | > 100 µM (inactive) | > 100 µM (inactive) | > 100 µM (inactive) | > 100 µM (inactive) | > 100 µM (inactive) | > 100 µM (inactive) | > 100 µM (inactive) | > 100 µM (inactive) | > 100 µM (inactive) | > 100 µM (inactive) | > 100 µM (inactive) | > 100 µM (inactive) | > 100 µM (inactive) | > 100 µM (inactive) | > 100 µM (inactive) | > 100 µM (inactive) | > 100 µM (inactive) | > 100 µM (inactive) | > 100 µM (inactive)
O=C1N[C@@H]([C@H]2CC[C@H](Cl)CN2)C(=O)N[C@H]1[C@H]1CC[C@H](Cl)CN1 | 0.853 µM (active) | 3.3 µM (inactive) | 0.158 µM (active) | 0.169 µM (active) | 0.357 µM (active) | 0.248 µM (active) | 0.743 µM (active) | 1.8 µM (inactive) | 0.28 µM (active) | 2.26 µM (inactive) | 3.32 µM (inactive) | 1.39 µM (inactive) | 0.195 µM (active) | 0.804 µM (active) | 0.152 µM (active) | 0.466 µM (active) | 0.237 µM (active) | 2.56 µM (inactive) | 2.63 µM (inactive) | 0.1 µM (active)
CN1CCCN2CCN(C)CCN(CC1)CC2 | > 100 µM (inactive) | > 100 µM (inactive) | > 100 µM (inactive) | > 100 µM (inactive) | 0.0366 µM (active) | > 100 µM (inactive) | > 100 µM (inactive) | > 100 µM (inactive) | > 100 µM (inactive) | > 100 µM (inactive) | > 100 µM (inactive) | > 100 µM (inactive) | > 100 µM (inactive) | > 100 µM (inactive) | > 100 µM (inactive) | > 100 µM (inactive) | > 100 µM (inactive) | > 100 µM (inactive) | > 100 µM (inactive) | > 100 µM (inactive)
O=C1C=C(OCCCCl)C(=O)c2c(O)ccc(O)c21 | 2.07 µM (inactive) | 1.78 µM (inactive) | 0.188 µM (active) | 0.82 µM (active) | 1.38 µM (inactive) | 0.266 µM (active) | 0.459 µM (active) | 0.505 µM (active) | 1.42 µM (inactive) | 0.176 µM (active) | 1.79 µM (inactive) | 1.26 µM (inactive) | 0.195 µM (active) | 1.93 µM (inactive) | 0.661 µM (active) | 1.73 µM (inactive) | 0.256 µM (active) | 1.02 µM (active) | 2.13 µM (inactive) | 0.871 µM (active)
C[C@@H]1C[C@](O)([C@@H](C)Cl)C(=O)O[C@@H]2CCN3CC=C(COC(=O)[C@]1(C)O)[C@H]23 | > 100 µM (inactive) | > 100 µM (inactive) | > 100 µM (inactive) | > 100 µM (inactive) | > 100 µM (inactive) | > 100 µM (inactive) | > 100 µM (inactive) | > 100 µM (inactive) | > 100 µM (inactive) | > 100 µM (inactive) | > 100 µM (inactive) | > 100 µM (inactive) | > 100 µM (inactive) | > 100 µM (inactive) | > 10 µM (inactive) | > 100 µM (inactive) | > 100 µM (inactive) | > 100 µM (inactive) | > 100 µM (inactive) | > 100 µM (inactive)
COc1ccc(OC)c2c1C=CC(Br)=CC2 | 0.43 µM (active) | 0.309 µM (active) | 0.237 µM (active) | 0.16 µM (active) | 0.653 µM (active) | 0.303 µM (active) | 0.232 µM (active) | 0.276 µM (active) | 0.269 µM (active) | 0.255 µM (active) | 0.309 µM (active) | 0.173 µM (active) | 0.295 µM (active) | 0.352 µM (active) | 0.39 µM (active) | 0.313 µM (active) | 0.158 µM (active) | 0.106 µM (active) | 0.324 µM (active) | 0.191 µM (active)
O=[N+]([O-])C1=Cc2c(O)ccc(O)c2C2c3ccccc3NC12 (stereo not given) | 5.82 µM (inactive) | 9.04 µM (inactive) | 13.2 µM (inactive) | 13.2 µM (inactive) | 30.9 µM (inactive) | 17.3 µM (inactive) | 9.16 µM (inactive) | 5.81 µM (inactive) | 11.3 µM (inactive) | 13.9 µM (inactive) | 14.8 µM (inactive) | 9.27 µM (inactive) | 2.71 µM (inactive) | 6.3 µM (inactive) | 3.88 µM (inactive) | 16.7 µM (inactive) | 14 µM (inactive) | 16.9 µM (inactive) | 14.7 µM (inactive) | 13.5 µM (inactive)
O=C(O)c1cccc(/N=N/c2c(S(=O)(=O)O)ccc3c2C(=O)c2ccccc2C3=O)c1O | > 100 µM (inactive) | > 100 µM (inactive) | > 100 µM (inactive) | > 100 µM (inactive) | > 100 µM (inactive) | > 100 µM (inactive) | > 100 µM (inactive) | > 100 µM (inactive) | > 100 µM (inactive) | > 100 µM (inactive) | > 100 µM (inactive) | > 100 µM (inactive) | > 100 µM (inactive) | > 100 µM (inactive) | > 100 µM (inactive) | > 100 µM (inactive) | > 100 µM (inactive) | > 100 µM (inactive) | > 100 µM (inactive) | > 100 µM (inactive)
C[C@H](CCC(=O)NCCS(=O)(=O)O)[C@H]1CC[C@H]2[C@@H]3[C@H](O)C[C@@H]4C[C@H](O)CC[C@]4(C)[C@H]3CC[C@]12C | > 100 µM (inactive) | > 100 µM (inactive) | > 100 µM (inactive) | > 100 µM (inactive) | > 100 µM (inactive) | > 100 µM (inactive) | > 100 µM (inactive) | > 100 µM (inactive) | > 100 µM (inactive) | > 100 µM (inactive) | > 100 µM (inactive) | > 100 µM (inactive) | > 100 µM (inactive) | > 100 µM (inactive) | > 100 µM (inactive) | > 100 µM (inactive) | > 100 µM (inactive) | > 100 µM (inactive) | > 100 µM (inactive) | > 100 µM (inactive)
CC(C)CC(C#CCCOC(=O)c1ccccc1)OC(=O)c1ccccc1 (stereo not given) | > 10 µM (inactive) | > 10 µM (inactive) | > 10 µM (inactive) | > 10 µM (inactive) | > 10 µM (inactive) | > 10 µM (inactive) | > 10 µM (inactive) | > 10 µM (inactive) | > 10 µM (inactive) | > 10 µM (inactive) | > 10 µM (inactive) | > 10 µM (inactive) | > 10 µM (inactive) | > 10 µM (inactive) | > 10 µM (inactive) | > 10 µM (inactive) | > 10 µM (inactive) | > 10 µM (inactive) | > 10 µM (inactive) | > 10 µM (inactive)
O=c1c2ccc(Cl)cc2oc2c(CNc3ccc(S(=O)(=O)Nc4nccs4)cc3)cccc12 | > 100 µM (inactive) | > 100 µM (inactive) | > 100 µM (inactive) | > 100 µM (inactive) | 99.1 µM (inactive) | > 100 µM (inactive) | > 100 µM (inactive) | > 100 µM (inactive) | > 100 µM (inactive) | > 100 µM (inactive) | > 100 µM (inactive) | > 100 µM (inactive) | > 100 µM (inactive) | > 100 µM (inactive) | 91.6 µM (inactive) | > 100 µM (inactive) | > 100 µM (inactive) | > 100 µM (inactive) | > 100 µM (inactive) | > 100 µM (inactive)
CCN1CCN=c2c3cc(OC)ccc3n3cnc4ccc1c2c43 | 0.0863 µM (active) | 0.395 µM (active) | 0.245 µM (active) | 0.26 µM (active) | 0.123 µM (active) | 0.192 µM (active) | 0.0565 µM (active) | 0.226 µM (active) | 0.193 µM (active) | 0.553 µM (active) | 0.231 µM (active) | 0.0555 µM (active) | 0.219 µM (active) | 0.207 µM (active) | 0.102 µM (active) | 0.427 µM (active) | 0.154 µM (active) | 0.238 µM (active) | 0.225 µM (active) | 0.0283 µM (active)
CCCCCCCCCCCC/C=C\CC[C@@H](O)[C@H](O)CC[C@H](O)[C@@H]1CC[C@@H](CCCCCCCC2=C[C@H](C)OC2=O)O1 [GIGANTRIONENIN] | 2.64 µM (inactive) | 3.92 µM (inactive) | 13.9 µM (inactive) | 1.93 µM (inactive) | > 10 µM (inactive) | 1.73 µM (inactive) | 1.87 µM (inactive) | 1.99 µM (inactive) | 4.1 µM (inactive) | 0.0546 µM (active) | 2.97 µM (inactive) | 1.15 µM (inactive) | 2.28 µM (inactive) | 2.75 µM (inactive) | 1.44 µM (inactive) | 4.42 µM (inactive) | 1.31 µM (inactive) | 2.24 µM (inactive) | 5.56 µM (inactive) | 1.41 µM (inactive)
COc1nc(N)nc2c1ncn2C1CC(O)C(CO)O1 (stereo not given) | > 100 µM (inactive) | > 100 µM (inactive) | > 100 µM (inactive) | > 100 µM (inactive) | > 100 µM (inactive) | > 100 µM (inactive) | > 100 µM (inactive) | > 100 µM (inactive) | > 100 µM (inactive) | > 100 µM (inactive) | > 100 µM (inactive) | > 100 µM (inactive) | > 100 µM (inactive) | > 100 µM (inactive) | > 100 µM (inactive) | > 100 µM (inactive) | > 100 µM (inactive) | > 100 µM (inactive) | > 100 µM (inactive) | > 100 µM (inactive)
